Tests used:
Assay type in all cases: cell-based
[1] = biological target: T1, human PPARδ (Homo sapiens, UniProt Q03181); assay: Gal4-human PPARδ chimera luciferase transfection assay in COS cells; conditions: compound added at 1 μM, luciferase activity with GW501516 1 μM given as 10.0, 16 hours
T1 construct: with 137th to 441st amino acids of human PPARδ; expressed in transfected cells; host or cells: COS cells (African green monkey kidney)
T1 sequence (Q03181 137-441): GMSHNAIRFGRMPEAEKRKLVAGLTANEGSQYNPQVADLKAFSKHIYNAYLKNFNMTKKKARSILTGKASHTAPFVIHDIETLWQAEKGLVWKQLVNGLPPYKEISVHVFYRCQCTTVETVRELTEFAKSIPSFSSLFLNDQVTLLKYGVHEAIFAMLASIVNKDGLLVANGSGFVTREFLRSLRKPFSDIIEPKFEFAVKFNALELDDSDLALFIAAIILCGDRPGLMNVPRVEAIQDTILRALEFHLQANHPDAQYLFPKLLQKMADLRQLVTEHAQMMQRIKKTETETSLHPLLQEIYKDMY
Protocol: (§1) The PPAR receptor-activating effect of the compound of the present invention represented by the formula (1) was measured by a method described below (Proc. Natl. Acad. Sci., 92, pp 7297-7301, 1995; Journal of Lipid Research, 40, pp 2099-2110, 1999; and Proc. Natl. Acad. Sci, 98, pp 5306-5311, 2001).
(§2) All the transfection assays were conducted using African green monkey kidney-derived cell line COS cells. The COS cells were cultured at 5% CO2 concentration using a DMEM medium containing 10% fetal bovine serum, glutamic acid, and an antibiotic as a culture solution.
(§3) Gal4-human PPARs chimeric constructs which were fused the DNA-binding region of yeast transcription factor Gal4 with the ligand-binding region of human PPARs were used as an expression vector. A chimera where 1st to 147th amino acids of the Gal4 transcription factor were fused with 166th to 467th amino acids of human PPARα, with 182nd to 505th amino acids of human PPARγ2, or with 137th to 441st amino acids of human PPARδ was used as the chimera for each isoform. A reporter vector used was firefly luciferase whose promoter region contains five Gal4 recognition sequences. The plasmids were transfected into the cells by a method using Lipofectamine. In addition, a β-galactosidase expression vector was used as an internal standard.
(§4) After the transfection into the cells, the medium was substituted with a DMEM medium (containing 0.2% serum) supplemented with the compound, in which the cells were then cultured for additional 16 hours. Thereafter, luciferase activity and β-galactosidase activity in the cell lysate were measured.
(§5) In the present experiment, dimethyl sulfoxide (DMSO) was used in the dissolution and dilution of the compound. When the cells were treated, the DMSO concentration in the DMEM medium (containing 0.2% serum) was adjusted to 0.1%.

[2] = biological target: T2, human PPARγ2 (Homo sapiens, UniProt P37231); assay: Gal4-human PPARγ2 chimera luciferase transfection assay in COS cells; conditions: compound added at 1 μM, luciferase activity with rosiglitazone 1 μM given as 10.0, 16 hours
T2 construct: with 182nd to 505th amino acids of human PPARγ2; expressed in transfected cells; host or cells: COS cells (African green monkey kidney)
T2 sequence (P37231 182-505): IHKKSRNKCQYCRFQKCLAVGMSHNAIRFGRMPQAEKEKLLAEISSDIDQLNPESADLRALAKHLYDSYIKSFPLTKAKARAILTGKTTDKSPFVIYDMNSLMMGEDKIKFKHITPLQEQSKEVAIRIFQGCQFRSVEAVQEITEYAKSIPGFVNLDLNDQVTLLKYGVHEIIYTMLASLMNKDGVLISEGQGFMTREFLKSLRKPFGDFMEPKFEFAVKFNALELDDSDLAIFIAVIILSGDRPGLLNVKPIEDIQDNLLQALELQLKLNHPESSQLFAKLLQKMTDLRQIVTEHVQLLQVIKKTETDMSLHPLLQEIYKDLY
Protocol: as §1, §2, §3, §4, §5

[3] = biological target: T3, human PPARα (Homo sapiens, UniProt Q07869); assay: Gal4-human PPARα chimera luciferase transfection assay in COS cells; conditions: compound added at 1 μM, luciferase activity with WY14643 10 μM given as 10.0, 16 hours
T3 construct: 166th to 467th amino acids of human PPARα; expressed in transfected cells; host or cells: COS cells (African green monkey kidney)
T3 sequence (Q07869 166-467): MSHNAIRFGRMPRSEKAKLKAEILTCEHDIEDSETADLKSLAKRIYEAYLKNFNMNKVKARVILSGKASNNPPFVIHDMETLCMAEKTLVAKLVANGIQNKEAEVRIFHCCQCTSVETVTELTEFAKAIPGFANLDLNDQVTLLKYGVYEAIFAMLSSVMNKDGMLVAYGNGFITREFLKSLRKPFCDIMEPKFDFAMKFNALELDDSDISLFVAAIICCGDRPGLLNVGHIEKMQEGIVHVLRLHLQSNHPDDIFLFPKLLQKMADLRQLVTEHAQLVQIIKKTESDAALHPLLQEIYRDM
Protocol: as §1, §2, §3, §4, §5

Row | Structure (SMILES) | hPPAR; Relative activity δ [1] | hPPAR; Relative activity γ [2] | hPPAR; Relative activity α [3]
1 | O=C(O)c1ccccc1SCCCCN(CCCc1ccccc1)c1nc2ccccc2o1 [Example 97, 2-[4-[N-(Benzoxazol-2-yl)-N-3-phenylpropyl]aminobutylthio]benzoic acid] | 0.2 | 4.6 | 11.6
2 | O=C(O)c1ccccc1SCCCCCCN(Cc1ccc(Cl)cc1)c1nc2ccccc2o1 [Example 106, 2-[6-[N-(Benzoxazol-2-yl)-N-4-chlorobenzyl]aminohexylthio]benzoic acid] | 0.0 | 2.4 | 13.1
3 | CCCCCCN(CCCCOc1ccc(C(=O)O)cc1)c1nc2ccccc2o1 [Example 60, 4-[4-[N-(Benzoxazol-2-yl)-N-n-hexyl]aminobutoxy]benzoic acid] | 0.1 | 1.8 | 11.9
4 | O=C(O)c1ccccc1OCCCCN(CCCOc1ccccc1)c1nc2ccccc2o1 [Example 53, 2-[4-[N-(Benzoxazol-2-yl)-N-3-phenoxypropyl]aminobutoxy]benzoic acid] | 0.1 | 3.5 | 16.0
5 | O=C(O)c1ccccc1SCCN(CCCc1ccccc1)c1nc2ccccc2o1 [Example 79, 2-[2-[N-(Benzoxazol-2-yl)-N-3-phenylpropyl]aminoethylthio]benzoic acid] | 0.2 | 1.1 | 13.3
6 | CCCCCCCCN(CCCCOc1ccccc1C(=O)O)c1nc2ccccc2o1 [Example 50, 2-[4-[N-(Benzoxazol-2-yl)-N-n-octyl]aminobutoxy]benzoic acid] | 0.1 | 2.9 | 13.3
7 | O=C(O)c1ccccc1SCCCCCN(CCCOc1ccccc1)c1nc2ccccc2o1 [Example 105, 2-[5-[N-(Benzoxazol-2-yl)-N-3-phenoxypropyl]aminopentylthio]benzoic acid] | 4.2 | 2.5 | 25.3
8 | O=C(O)c1ccccc1SCCCCN(CCOc1ccccc1)c1nc2ccccc2s1 [Example 111, 2-[4-[N-(Benzothiazol-2-yl)-N-2-phenoxyethyl]aminobutylthio]benzoic acid] | 0.3 | 4.6 | 16.0
9 | O=C(O)c1cccc(OCCCN(CCOc2ccc(Cl)cc2)c2nc3ccccc3o2)c1 [Example 6, 3-[3-[N-(Benzoxazol-2-yl)-N-2-(4-chlorophenoxy)ethyl]aminopropoxy]benzoic acid] | 0.3 | 1.2 | 17.3
10 | CCCCCCCCN(CCCOc1cccc(C(=O)O)c1)c1nc2ccccc2o1 [Example 20, 3-[3-[N-(Benzoxazol-2-yl)-N-n-octyl]aminopropoxy]benzoic acid] | 0.2 | 1.5 | 21.7

Now from value to compound:

Row | hPPAR; Relative activity δ [1] | hPPAR; Relative activity γ [2] | hPPAR; Relative activity α [3] | Structure (SMILES)
11 | 0.2 | 1.7 | 20.2 | CN(CCCCCSc1ccccc1C(=O)O)c1nc2ccccc2o1 [Example 100, 2-[5-[N-(Benzoxazol-2-yl)-N-methyl]aminopentylthio]benzoic acid]
12 | 0.6 | 1.7 | 13.5 | CCCCCN(CCCCCSc1ccccc1C(=O)O)c1nc2ccccc2o1 [Example 72, 2-[5-[N-(Benzoxazol-2-yl)-N-n-pentyl]aminopentylthio]benzoic acid]
13 | 0.2 | 2.0 | 18.9 | CCCCCCCN(CCSc1ccccc1C(=O)O)c1nc2ccccc2o1 [Example 77, 2-[2-[N-(Benzoxazol-2-yl)-N-n-heptyl]aminoethylthio]benzoic acid]
14 | 0.5 | 2.0 | 11.0 | CCCCN(CCCCCSc1ccccc1C(=O)O)c1nc2ccccc2o1 [Example 71, 2-[5-[N-(Benzoxazol-2-yl)-N-n-butyl]aminopentylthio]benzoic acid]
15 | 0.1 | 6.2 | 15.2 | CCCCCCCCN(CCOc1ccccc1C(=O)O)c1nc2ccccc2o1 [Example 13, 2-[2-[N-(Benzoxazol-2-yl)-N-n-octyl]aminoethoxy]benzoic acid]
16 | 0.8 | 2.7 | 18.7 | O=C(O)c1ccccc1SCCCCCN(CCCc1ccccc1)c1nc2ccccc2o1 [Example 104, 2-[5-[N-(BenzoxazoI-2-yl)-N-3-phenylpropyl]aminopentylthio]benzoic acid]

From patent US7301033B2, “PPAR-activating compound” (Kowa Co., Ltd., priority 2005, dated 2007)
